Data taken from patent US11083725B2 (priority 2014, dated 2021).

Test system: NHBE cells
Experiment: Biolog metabolic array: substrate use by NHBE cells with or without CA09 infection
Format: cell-based, human
Settings: for Substrate use, 590 nm absorbance normalized to zero hour, 1 hr: Biolog PMM2, 1 hr; for Substrate use, 590 nm absorbance normalized to zero hour, 5 hr: Biolog PMM2, 5 hr; for Substrate use, 590 nm absorbance normalized to zero hour, 7 hr: Biolog PMM2, 7 hr
[1] = Control (uninfected) NHBE cells
[2] = Virus (CA09-infected NHBE cells, MOI 1)
[3] = Virus: CA09-infected NHBE cells, MOI 1, Biolog PMM2
[4] = Virus (CA09-infected, MOI 1) NHBE cells

| SMILES | 590 nm absorbance normalized to zero hour (substrate use), 1 hr [1] | 590 nm absorbance normalized to zero hour (substrate use), 2 hr [1] | 590 nm absorbance normalized to zero hour (substrate use), 3 hr [1] | 590 nm absorbance normalized to zero hour (substrate use), 4 hr [1] | 590 nm absorbance normalized to zero hour (substrate use), 6 hr [1] | 590 nm absorbance normalized to zero hour (substrate use), 8 hr [1] | 590 nm absorbance normalized to zero hour (substrate use), 9 hr [1] | 590 nm absorbance normalized to zero hour (substrate use), 10 hr [1] | 590 nm absorbance normalized to zero hour (substrate use), 11 hr [1] | 590 nm absorbance normalized to zero hour (substrate use), 1 hr [3] | 590 nm absorbance normalized to zero hour (substrate use), 2 hr [3] | 590 nm absorbance normalized to zero hour (substrate use), 3 hr [3] | 590 nm absorbance normalized to zero hour (substrate use), 4 hr [3] | 590 nm absorbance normalized to zero hour (substrate use), 5 hr [3] | 590 nm absorbance normalized to zero hour (substrate use), 6 hr [3] | 590 nm absorbance normalized to zero hour (substrate use), 7 hr [3] | 590 nm absorbance normalized to zero hour (substrate use), 8 hr [3] | 590 nm absorbance normalized to zero hour (substrate use), 9 hr [3] | 590 nm absorbance normalized to zero hour (substrate use), 10 hr [3] | 590 nm absorbance normalized to zero hour (substrate use), 11 hr [3] | also measured |
| --- | --- | --- | --- | --- | --- | --- | --- | --- | --- | --- | --- | --- | --- | --- | --- | --- | --- | --- | --- | --- | --- |
| OC[C@@H](O)[C@@H](O)[C@@H](O)CO [Adonitol] | 0.57 | 0.78 | 0.93 | 0.98 | 1.35 | 1.40 | 1.55 | 1.43 | 1.46 | 0.21 | 0.26 | 0.29 | 0.31 | 0.34 | 0.36 | 0.38 | 0.39 | 0.42 | 0.44 | 0.43 | Substrate use, 590 nm absorbance normalized to zero hour, 1 hr [1]: 0.57; Substrate use, 590 nm absorbance normalized to zero hour, 5 hr [1]: 1.16; Substrate use, 590 nm absorbance normalized to zero hour, 7 hr [1]: 1.28; 590 nm absorbance normalized to zero hour (substrate use), 1 hr [2]: 0.21; 590 nm absorbance normalized to zero hour (substrate use), 2 hr [2]: 0.26; 590 nm absorbance normalized to zero hour (substrate use), 3 hr [2]: 0.29; 590 nm absorbance normalized to zero hour (substrate use), 4 hr [2]: 0.31; 590 nm absorbance normalized to zero hour (substrate use), 5 hr [2]: 0.34; 590 nm absorbance normalized to zero hour (substrate use), 6 hr [2]: 0.36; 590 nm absorbance normalized to zero hour (substrate use), 7 hr [2]: 0.38; 590 nm absorbance normalized to zero hour (substrate use), 8 hr [2]: 0.39; 590 nm absorbance normalized to zero hour (substrate use), 9 hr [2]: 0.42; 590 nm absorbance normalized to zero hour (substrate use), 10 hr [2]: 0.44; 590 nm absorbance normalized to zero hour (substrate use), 11 hr [2]: 0.43 |
| O=C(O)CC(O)(CC(=O)O)C(=O)O [Citric Acid] | 1.40 | 1.41 | 1.16 | 1.15 | 1.07 | 1.05 | 1.05 | 1.05 | 1.04 | 1.54 | 1.94 | 2.21 | 2.31 | 2.64 | 2.74 | 2.85 | 2.95 | 3.10 | 2.94 | 2.81 | Substrate use, 590 nm absorbance normalized to zero hour, 1 hr [1]: 1.40; Substrate use, 590 nm absorbance normalized to zero hour, 5 hr [1]: 1.22; Substrate use, 590 nm absorbance normalized to zero hour, 7 hr [1]: 1.04; 590 nm absorbance normalized to zero hour (substrate use), 1 hr [4]: 1.54; 590 nm absorbance normalized to zero hour (substrate use), 2 hr [4]: 1.94; 590 nm absorbance normalized to zero hour (substrate use), 3 hr [4]: 2.21; 590 nm absorbance normalized to zero hour (substrate use), 4 hr [4]: 2.31; 590 nm absorbance normalized to zero hour (substrate use), 5 hr [4]: 2.64; 590 nm absorbance normalized to zero hour (substrate use), 6 hr [4]: 2.74; 590 nm absorbance normalized to zero hour (substrate use), 7 hr [4]: 2.85; 590 nm absorbance normalized to zero hour (substrate use), 8 hr [4]: 2.95; 590 nm absorbance normalized to zero hour (substrate use), 9 hr [4]: 3.10; 590 nm absorbance normalized to zero hour (substrate use), 10 hr [4]: 2.94; 590 nm absorbance normalized to zero hour (substrate use), 11 hr [4]: 2.81 |
| O=C[C@H](O)[C@@H](O)[C@H](O)[C@H](O)CO [D-(+)-Glucose] | – | – | – | – | – | – | – | – | – | 0.82 | 1.44 | 1.76 | 1.96 | 2.64 | 2.91 | 3.23 | 3.59 | 4.21 | 4.43 | 5.05 | – |
| O=C[C@@H](O)[C@H](O)[C@H](O)CO [D-Arabinose] | 1.59 | 1.50 | 0.77 | 1.35 | 0.39 | 1.00 | 1.14 | 0.96 | 1.35 | 0.65 | 0.90 | 1.03 | 1.07 | 1.22 | 1.29 | 1.37 | 1.33 | 1.34 | 1.38 | 1.58 | Substrate use, 590 nm absorbance normalized to zero hour, 1 hr [1]: 1.59; Substrate use, 590 nm absorbance normalized to zero hour, 5 hr [1]: 0.99; Substrate use, 590 nm absorbance normalized to zero hour, 7 hr [1]: 1.04; 590 nm absorbance normalized to zero hour (substrate use), 1 hr [4]: 0.65; 590 nm absorbance normalized to zero hour (substrate use), 2 hr [4]: 0.90; 590 nm absorbance normalized to zero hour (substrate use), 3 hr [4]: 1.03; 590 nm absorbance normalized to zero hour (substrate use), 4 hr [4]: 1.07; 590 nm absorbance normalized to zero hour (substrate use), 5 hr [4]: 1.22; 590 nm absorbance normalized to zero hour (substrate use), 6 hr [4]: 1.29; 590 nm absorbance normalized to zero hour (substrate use), 7 hr [4]: 1.37; 590 nm absorbance normalized to zero hour (substrate use), 8 hr [4]: 1.33; 590 nm absorbance normalized to zero hour (substrate use), 9 hr [4]: 1.34; 590 nm absorbance normalized to zero hour (substrate use), 10 hr [4]: 1.38; 590 nm absorbance normalized to zero hour (substrate use), 11 hr [4]: 1.58 |
